What follows are molecules tested against T1, human 5HT2c receptor (INI isoform) (Homo sapiens, UniProt P28335) (assay: Phosphotidyl Inositol Turnover Assay (IP-One Tb kit), agonist potency). Conditions: not given.
T1 sequence (P28335 33-458): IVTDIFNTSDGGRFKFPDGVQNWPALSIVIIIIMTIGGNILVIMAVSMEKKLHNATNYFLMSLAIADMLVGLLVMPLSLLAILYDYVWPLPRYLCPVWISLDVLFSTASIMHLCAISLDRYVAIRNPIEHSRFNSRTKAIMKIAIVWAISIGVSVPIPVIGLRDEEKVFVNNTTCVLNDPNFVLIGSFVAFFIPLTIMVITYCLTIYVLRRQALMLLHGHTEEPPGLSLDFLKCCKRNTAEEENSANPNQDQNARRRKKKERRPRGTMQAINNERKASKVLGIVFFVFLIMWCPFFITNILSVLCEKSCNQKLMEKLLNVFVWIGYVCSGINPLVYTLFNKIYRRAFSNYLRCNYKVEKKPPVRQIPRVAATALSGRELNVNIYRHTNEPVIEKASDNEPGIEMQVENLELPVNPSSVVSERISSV
Format: cell-based

`CCC1CCc2c(Cl)cc3c(c21)CCNCC3` (stereo not shown) [Example 6, 4-Chloro-1-ethyl-1,2,3,6,7,8,9,10-octahydro-8-aza-cyclohepta[e]indene] and `CCC1CCc2c(F)cc3c(c21)CCNCC3` (stereo not shown) [Example 8, 1-Ethyl-4-fluoro-1,2,3,6,7,8,9,10-octahydro-8-aza-cyclohepta[e]indene] cannot be ordered by EC50: less than 10 nM for the first, less than 10 nM for the second.

`COC1c2c(ccc3c2CCNCC3)CC1(F)F` (stereo not shown) [Example 38, 2,2-Difluoro-1-methoxy-1,2,3,6,7,8,9,10-octahydro-8-aza-cyclohepta[e]indene] and `CCOC1c2c(ccc3c2CCNCC3)CC1(F)F` (stereo not shown) [Example 41, 1-Ethoxy-2,2-difluoro-1,2,3,6,7,8,9,10-octahydro-8-aza-cyclohepta[e]indene] cannot be ordered by EC50: less than 10 nM for the first, less than 10 nM for the second.

`CCC1COc2ccc3c(c21)CCNCC3` (stereo not shown) [Example 36, 1-Ethyl-1,2,7,8,9,10-hexahydro-6H-3-oxa-8-aza-cyclohepta[e]indene] and `CCC1CCOc2ccc3c(c21)CCNCC3` (stereo not shown) [Example 37, 1-Ethyl-2,3,8,9,10,11-hexahydro-1H,7H-4-oxa-9-aza-cyclohepta[a]naphthalene] cannot be ordered by EC50: less than 10 nM for the first, less than 10 nM for the second.

`Clc1cc2c(c3c1CCC3c1ccccc1)CCNCC2` (stereo not shown) [Example 10, 4-Chloro-1-phenyl-1,2,3,6,7,8,9,10-octahydro-8-aza-cyclohepta[e]indene] and `CC1(C)CCc2c(-c3ccccc3)cc3c(c21)CCNCC3` [Example 35, 1,1-Dimethyl-4-phenyl-1,2,3,6,7,8,9,10-octahydro-8-aza-cyclohepta[e]indene] cannot be ordered by EC50: less than 10 nM for the first, less than 1000 nM for the second.

`CCC1CCc2ccc3c(c21)CCNCC3` (stereo not shown) [Example 3, 1-Ethyl-1,2,3,6,7,8,9,10-octahydro-8-aza-cyclohepta[e]indene] and `CCCC1CCc2ccc3c(c21)CCNCC3` (stereo not shown) [Example 5, 1-Propyl-1,2,3,6,7,8,9,10-octahydro-8-aza-cyclohepta[e]indene] cannot be ordered by EC50: less than 10 nM for the first, less than 10 nM for the second.

`CC1c2c(ccc3c2CCNCC3)CC1(F)F` (stereo not shown) [Example 32, 2,2-Difluoro-1-methyl-1,2,3,6,7,8,9,10-octahydro-8-aza-cyclohepta[e]indene] and `CCC1c2c(ccc3c2CCNCC3)CC1(F)F` (stereo not shown) [Example 31, 1-Ethyl-2,2-difluoro-1,2,3,6,7,8,9,10-octahydro-8-aza-cyclohepta[e]indene] cannot be ordered by EC50: less than 10 nM for the first, less than 10 nM for the second.

`COC1CCc2ccc3c(c21)CCNCC3` (stereo not shown) [Example 43, 1-Methoxy-1,2,3,6,7,8,9,10-octahydro-8-aza-cyclohepta[e]indene] and `CC1CCc2ccc3c(c21)CCNCC3` (stereo not shown) [Example 2, 1-Methyl-1,2,3,6,7,8,9,10-octahydro-8-aza-cyclohepta[e]indene] cannot be ordered by EC50: less than 10 nM for the first, less than 10 nM for the second.

`CC1(C)CCc2ccc3c(c21)CCNCC3` [Example 13, 1,1-Dimethyl-1,2,3,6,7,8,9,10-octahydro-8-aza-cyclohepta[e]indene] and `CC1(C)c2c(ccc3c2CCNCC3)CC1(F)F` [Example 34, 2,2-Difluoro-1,1-dimethyl-1,2,3,6,7,8,9,10-octahydro-8-aza-cyclohepta[e]indene] cannot be ordered by EC50: less than 10 nM for the first, less than 10 nM for the second.

`FC1(F)Cc2ccc3c(c2C1)CCNCC3` [Example 42, 2,2-Difluoro-1,2,3,6,7,8,9,10-octahydro-8-aza-cyclohepta[e]indene] and `c1cc2c(c3c1CCC3)CCNCC2` [Example 1, 1,2,3,6,7,8,9,10-Octahydro-8-aza-cyclohepta[e]indene] cannot be ordered by EC50: less than 10 nM for the first, less than 10 nM for the second.

Work on `CCC1CCc2c(I)cc3c(c21)CCNCC3` (stereo not shown) [Example 7, 1-Ethyl-4-iodo-1,2,3,6,7,8,9,10-octahydro-8-aza-cyclohepta[e]indene] yielded an EC50 of less than 10 nM.

Same assay, conditions: 5-HT2c PI turnover potency of the more active isomer (where applicable); HEK 293 EBNA cells expressing INI isoform of human 5HT2c receptor; read-out: Potency at 5HT2c (INI isoform)

`COc1cccc(C2c3c(ccc4c3CCNCC4)CC2(F)F)c1` (stereo not shown) [Example 26, 2,2-Difluoro-1-(3-methoxy-phenyl)-1,2,3,6,7,8,9,10-octahydro-8-aza-cyclohepta[e]indene] and `Cc1cccc(C2c3c(ccc4c3CCNCC4)CC2(F)F)c1` (stereo not shown) [Example 16, 2,2-Difluoro-1-m-tolyl-1,2,3,6,7,8,9,10-octahydro-8-aza-cyclohepta[e]indene] cannot be ordered by EC50: less than 10 nM for the first, less than 10 nM for the second.

`FC1(F)Cc2ccc3c(c2C1c1ccncc1)CCNCC3` (stereo not shown) [Example 29, 2,2-Difluoro-1-pyridin-4-yl-1,2,3,6,7,8,9,10-octahydro-8-aza-cyclohepta[e]indene] and `FC1(F)Cc2ccc3c(c2C1c1cccnc1)CCNCC3` (stereo not shown) [Example 28, 2,2-Difluoro-1-pyridin-3-yl-1,2,3,6,7,8,9,10-octahydro-8-aza-cyclohepta[e]indene] cannot be ordered by EC50: less than 1000 nM for the first, less than 10 nM for the second.

`COc1ccccc1C1c2c(ccc3c2CCNCC3)CC1(F)F` (stereo not shown) [Example 25, 2,2-Difluoro-1-(2-methoxy-phenyl)-1,2,3,6,7,8,9,10-octahydro-8-aza-cyclohepta[e]indene] and `Cc1ccccc1C1c2c(ccc3c2CCNCC3)CC1(F)F` (stereo not shown) [Example 15, 2,2-Difluoro-1-o-tolyl-1,2,3,6,7,8,9,10-octahydro-8-aza-cyclohepta[e]indene] cannot be ordered by EC50: less than 10 nM for the first, less than 10 nM for the second.

`c1ccc(C2CCc3ccc4c(c32)CCNCC4)cc1` (stereo not shown) [Example 9, 1-Phenyl-1,2,3,6,7,8,9,10-octahydro-8-aza-cyclohepta[e]indene] and `c1cncc(C2CCc3ccc4c(c32)CCNCC4)c1` (stereo not shown) [Example 11, 1-Pyridin-3-yl-1,2,3,6,7,8,9,10-octahydro-8-aza-cyclohepta[e]indene] cannot be ordered by EC50: less than 10 nM for the first, less than 10 nM for the second.

`FC1(F)Cc2c(Cl)cc3c(c2C1c1cccnc1)CCNCC3` (stereo not shown) [Example 30, 4-Chloro-2,2-difluoro-1-pyridin-3-yl-1,2,3,6,7,8,9,10-octahydro-8-aza-cyclohepta[e]indene] and `Fc1cc2c(c3c1CCC3c1cccnc1)CCNCC2` (stereo not shown) [Example 12, 4-Fluoro-1-pyridin-3-yl-1,2,3,6,7,8,9,10-octahydro-8-aza-cyclohepta[e]indene] cannot be ordered by EC50: less than 10 nM for the first, less than 10 nM for the second.

`FC1(F)Cc2ccc3c(c2C1c1ccccc1)CCNCC3` (stereo not shown) [Example 14, 2,2-Difluoro-1-phenyl-1,2,3,6,7,8,9,10-octahydro-8-aza-cyclohepta[e]indene] and `Fc1cccc(C2c3c(ccc4c3CCNCC4)CC2(F)F)c1` (stereo not shown) [Example 21, 2,2-Difluoro-1-(3-fluoro-phenyl)-1,2,3,6,7,8,9,10-octahydro-8-aza-cyclohepta[e]indene] cannot be ordered by EC50: less than 10 nM for the first, less than 10 nM for the second.

`c1csc(C2CCc3ccc4c(c32)CCNCC4)n1` (stereo not shown) [Example 40, 1-Thiazol-2-yl-1,2,3,6,7,8,9,10-octahydro-8-aza-cyclohepta[e]indene] and `c1cc2c(c3c1CCNCC3)C(C1CC1)CC2` (stereo not shown) [Example 4, 1-Cyclopropyl-1,2,3,6,7,8,9,10-octahydro-8-aza-cyclohepta[e]indene] cannot be ordered by EC50: less than 10 nM for the first, less than 10 nM for the second.

`Fc1ccc(C2c3c(ccc4c3CCNCC4)CC2(F)F)cc1` (stereo not shown) [Example 20, 2,2-Difluoro-1-(4-fluoro-phenyl)-1,2,3,6,7,8,9,10-octahydro-8-aza-cyclohepta[e]indene] and `Cc1ccc(C2c3c(ccc4c3CCNCC4)CC2(F)F)cc1` (stereo not shown) [Example 17, 2,2-Difluoro-1-p-tolyl-1,2,3,6,7,8,9,10-octahydro-8-aza-cyclohepta[e]indene] cannot be ordered by EC50: less than 10 nM for the first, less than 100 nM for the second.

`FC(F)(F)c1cccc(C2c3c(ccc4c3CCNCC4)CC2(F)F)c1` (stereo not shown) [Example 18, 2,2-Difluoro-1-(3-trifluoromethyl-phenyl)-1,2,3,6,7,8,9,10-octahydro-8-aza-cyclohepta[e]indene] and `FC(F)(F)Oc1cccc(C2c3c(ccc4c3CCNCC4)CC2(F)F)c1` (stereo not shown) [Example 19, 2,2-Difluoro-1-(3-trifluoromethoxy-phenyl)-1,2,3,6,7,8,9,10-octahydro-8-aza-cyclohepta[e]indene] cannot be ordered by EC50: less than 10 nM for the first, less than 10 nM for the second.

`COc1ccc(C2c3c(ccc4c3CCNCC4)CC2(F)F)cc1` (stereo not shown) [Example 27, 2,2-Difluoro-1-(4-methoxy-phenyl)-1,2,3,6,7,8,9,10-octahydro-8-aza-cyclohepta[e]indene] and `FC1(F)Cc2ccc3c(c2C1c1ccc(Cl)cc1)CCNCC3` (stereo not shown) [Example 24, 1-(4-Chloro-phenyl)-2,2-difluoro-1,2,3,6,7,8,9,10-octahydro-8-aza-cyclohepta[e]indene] cannot be ordered by EC50: less than 100 nM for the first, less than 10 nM for the second.

`FC1(F)Cc2ccc3c(c2C1C1CC1)CCNCC3` (stereo not shown) [Example 22, 1-Cyclopropyl-2,2-difluoro-1,2,3,6,7,8,9,10-octahydro-8-aza-cyclohepta[e]indene] and `FC1(F)Cc2ccc3c(c2C1c1cccc(Cl)c1)CCNCC3` (stereo not shown) [Example 23, 1-(3-Chloro-phenyl)-2,2-difluoro-1,2,3,6,7,8,9,10-octahydro-8-aza-cyclohepta[e]indene] cannot be ordered by EC50: less than 10 nM for the first, less than 10 nM for the second.

`c1ccc(-c2coc3ccc4c(c23)CCNCC4)cc1` [Example 39, 1-Phenyl-7,8,9,10-tetrahydro-6H-3-oxa-8-aza-cyclohepta[e]indene] and `FC1(F)Cc2ccc3c(c2C1Cc1ccccc1)CCNCC3` (stereo not shown) [Example 33, 1-Benzyl-2,2-difluoro-1,2,3,6,7,8,9,10-octahydro-8-aza-cyclohepta[e]indene] cannot be ordered by EC50: less than 10 nM for the first, less than 10 nM for the second.
